{"source": "paper PMC4079055", "about": "(The New England journal of medicine, 2014)", "key": {"[1]": {"test": "Phase 1 study of oral ceritinib: safety, dose-limiting toxic events, MTD", "type": "in vivo"}, "[2]": {"test": "clinical", "conditions": "human, in vivo"}, "[3]": {"system": "ALK-rearranged NSCLC", "test": "Phase 1 study: antitumor activity", "type": "in vivo, human"}, "[4]": {"system": "ALK", "conditions": "enzymatic assays; cited from earlier work"}, "[5]": {"system": "MET", "conditions": "cited from earlier work"}, "[6]": {"system": "ALK-rearranged NSCLC xenograft", "conditions": "crizotinib-sensitive and crizotinib-resistant tumors; cited from earlier work"}, "[7]": {"conditions": "cited from earlier work"}, "[8]": {"conditions": "at least 400 mg daily, 114 patients with NSCLC"}}, "note": "Like-named read-outs stand apart in the source and are kept apart here."}
{"smiles": "Cc1cc(Nc2ncc(Cl)c(Nc3ccccc3S(=O)(=O)C(C)C)n2)c(OC(C)C)cc1C1CCNCC1", "note": "[Ceritinib]", "values": [{"measurement": "Treatment-related deaths", "setting": "[1]; all 130 patients", "result": "No treatment-related deaths occurred"}, {"measurement": "Any event, grade 3 or 4, suspected to be related", "setting": "[1]; human, in vivo", "result": "64 (49) number of patients with event (percent)"}, {"measurement": "Diarrhea, grade 3 or 4, suspected to be related", "setting": "[1]; human, in vivo", "result": "9 (7) number of patients with event (percent)"}, {"measurement": "Dose-limiting toxic events", "setting": "[1]; human, in vivo", "result": "diarrhea (at a daily dose of ≥600 mg), vomiting (at 750 mg daily), nausea (at 750 mg daily), dehydration (at 600 mg daily), elevated alanine aminotransferase level (at 400 mg daily), and hypophosphatemia (at 400 mg daily)"}, {"measurement": "Elevated alanine aminotransferase level, grade 3 or 4, suspected to be related", "setting": "[1]; human, in vivo", "result": "27 (21) number of patients with event (percent)"}, {"measurement": "Elevated amylase level, grade 3 or 4, suspected to be related", "setting": "[1]; human, in vivo", "result": "3 (2) number of patients with event (percent)"}, {"measurement": "Elevated aspartate aminotransferase level, grade 3 or 4, suspected to be related", "setting": "[1]; human, in vivo", "result": "14 (11) number of patients with event (percent)"}, {"measurement": "Elevated blood alkaline phosphatase level, grade 3 or 4, suspected to be related", "setting": "[1]; human, in vivo", "result": "3 (2) number of patients with event (percent)"}, {"measurement": "Elevated lipase level, grade 3 or 4, suspected to be related", "setting": "[1]; human, in vivo", "result": "9 (7) number of patients with event (percent)"}, {"measurement": "Fatigue, grade 3 or 4, suspected to be related", "setting": "[1]; human, in vivo", "result": "6 (5) number of patients with event (percent)"}, {"measurement": "Hyperglycemia, grade 3 or 4, suspected to be related", "setting": "[1]; human, in vivo", "result": "3 (2) number of patients with event (percent)"}, {"measurement": "Hypophosphatemia, grade 3 or 4, suspected to be related", "setting": "[1]; human, in vivo", "result": "4 (3) number of patients with event (percent)"}, {"measurement": "Incidence of grade 3 or 4 nausea", "setting": "[1]; human, in vivo", "result": 5, "unit": "%"}, {"measurement": "Median duration of treatment interruption", "setting": "[1]; human, in vivo", "result": 7.3, "unit": "days"}, {"measurement": "Nausea, grade 3 or 4, suspected to be related", "setting": "[1]; human, in vivo", "result": "7 (5) number of patients with event (percent)"}, {"measurement": "Study drug permanently discontinued owing to an adverse event", "setting": "[1]; human, in vivo", "result": 6, "unit": "%"}, {"measurement": "Vomiting, grade 3 or 4, suspected to be related", "setting": "[1]; human, in vivo", "result": "6 (5) number of patients with event (percent)"}, {"measurement": "Cases of interstitial lung disease possibly related to therapy", "setting": "[1]; in vivo", "result": "four"}, {"measurement": "Dose-limiting toxic events", "setting": "[1]; in vivo", "result": "diarrhea, vomiting, dehydration, elevated aminotransferase levels, and hypophosphatemia"}, {"measurement": "Maximum tolerated dose (MTD)", "setting": "[1]; oral, once daily, dose-escalation phase, 59 patients", "result": 750, "unit": "mg daily"}, {"measurement": "Day by which steady-state levels were achieved", "setting": "[2]", "result": "~15", "unit": "days"}, {"measurement": "Increase in Cmax in relation to dose", "setting": "[2]", "result": "slightly greater than proportional to the dose"}, {"measurement": "half-life", "setting": "[2]; 750 mg", "result": "~40", "unit": "h"}, {"measurement": "Mean (±SD) area under the plasma concentration–time curve over a 24-hour period", "setting": "[2]; po", "result": "16,500±4750 ng per milliliter per hour"}, {"measurement": "Mean Cmax", "setting": "[2]; po", "result": "800±205", "unit": "ng per milliliter"}, {"measurement": "Time at which Cmax was achieved after receipt of the dose", "setting": "[2]; po, 750 mg", "result": "approximately 6 hours"}, {"measurement": "Overall response rate", "setting": "[3]; 750 mg daily, 78 patients with NSCLC, 95% CI 47 to 70", "result": 59, "unit": "%"}, {"measurement": "Tumor regression by molecular status", "setting": "[3]; 19 crizotinib-resistant patients with repeat biopsy", "result": "Tumor regression was observed in all the patients"}, {"measurement": "Median progression-free survival", "setting": "[3]; 50 patients without central nervous system metastases, ≥400 mg daily", "result": 7.0, "unit": "months"}, {"measurement": "Patients with confirmed partial response", "setting": "[3]; 50 to 300 mg daily, 8 patients with NSCLC", "result": 2, "unit": "patients"}, {"measurement": "Median progression-free survival", "setting": "[3]; 64 patients with central nervous system metastases at baseline, ≥400 mg daily", "result": 6.9, "unit": "months"}, {"measurement": "Median duration of response", "setting": "[3]; 66 responders, at least 400 mg daily, 95% CI 6.9 to 11.4", "result": 8.2, "unit": "months"}, {"measurement": "Patients with duration of response of 6 months or longer", "setting": "[3]; 66 responders, at least 400 mg daily, 95% CI 50 to 74", "result": 64, "unit": "%"}, {"measurement": "Median progression-free survival", "setting": "[3]; 80 patients who had previously received crizotinib, 400 to 750 mg daily, 95% CI 5.3 to 8.8", "result": 6.9, "unit": "months"}, {"measurement": "Median progression-free survival", "setting": "[3]; 114 patients with NSCLC, at least 400 mg daily, 95% CI 5.6 to 9.5", "result": 7.0, "unit": "months"}, {"measurement": "Confirmed complete response", "setting": "[3]; [8]", "result": 1, "unit": "%"}, {"measurement": "Confirmed partial response", "setting": "[3]; [8]", "result": 57, "unit": "%"}, {"measurement": "Progressive disease on the first restaging scans", "setting": "[3]; [8]", "result": 11, "unit": "%"}, {"measurement": "Stable disease", "setting": "[3]; [8]", "result": 22, "unit": "%"}, {"measurement": "Overall response rate", "setting": "[3]; at least 400 mg daily, 114 patients with NSCLC, 95% CI 48 to 67", "result": 58, "unit": "%"}, {"measurement": "Median overall survival", "setting": "[3]; data immature, 72% censored", "result": "had not been reached"}, {"measurement": "Overall response rate", "setting": "[3]; no previous crizotinib, at least 400 mg daily, 34 patients, 95% CI 44 to 78", "result": 62, "unit": "%"}, {"measurement": "Patients with confirmed responses", "setting": "[3]; of 7 crizotinib-resistant patients with ALK gene amplification or mutation", "result": 6, "unit": "patients"}, {"measurement": "Patients with confirmed responses", "setting": "[3]; of 12 crizotinib-resistant patients without ALK alteration", "result": 7, "unit": "patients"}, {"measurement": "Reduction in tumor burden on computed tomographic scans", "setting": "[3]; one patient with crizotinib-resistant disease, after 6 weeks of treatment", "result": 52, "unit": "%"}, {"measurement": "Responses in untreated central nervous system lesions", "setting": "[3]; patients who had received crizotinib previously", "result": "responses were seen in untreated lesions in the central nervous system"}, {"measurement": "Overall response rate", "setting": "[3]; previously treated with crizotinib, 400 mg or more daily, 80 patients, 95% CI 45 to 67", "result": 56, "unit": "%"}, {"measurement": "Overall response rate", "setting": "[3]; previously treated with crizotinib, 750 mg daily, 50 patients, 95% CI 41 to 70", "result": 56, "unit": "%"}, {"measurement": "Potency against ALK relative to crizotinib", "setting": "[4]", "result": 20, "unit": "times"}, {"measurement": "Inhibition of the kinase activity of MET", "setting": "[5]", "result": "does not inhibit"}, {"measurement": "Antitumor activity in xenograft models", "setting": "[6]", "result": "marked antitumor activity"}]}
{"smiles": "C[C@@H](Oc1cc(-c2cnn(C3CCNCC3)c2)cnc1N)c1c(Cl)ccc(F)c1Cl", "note": "[crizotinib]", "values": [{"measurement": "Incidence of grade 3 or 4 nausea", "setting": "[7]", "result": 1, "unit": "%"}, {"measurement": "Patients with drug-related diarrhea of grade 3 or 4", "setting": "[7]; of 321 patients", "result": 0, "unit": "patients"}]}
